Earlier results as cited in article PMC5296674, “Evaluation of the Availability and Antioxidant Capacity of Maillard Compounds Present in Bread Crust: Studies in Caco-2 Cells” (Foods, 2017).

Tested on: Caco-2 cells
Design: method as in PMID 19338346

| HMF transport rate (100 µM HMF solution, 4 h of incubation) | SMILES | Saturation of transport (100 and 500 μM) |
| --- | --- | --- |
| – | CC1=C(O)C(=O)C(C)O1 (centres unmarked) [HDMF, 4-hydroxy-2,5-dimethyl-3(2H)-furanone] | saturation of the transport was not observed |
| around 20% | O=Cc1ccc(CO)o1 [HMF, hydroxymethylfurfural] | – |
